Results on one substance are retold here after US8686023B2, “Salts of sunitinib” (Lek Pharmaceuticals D.D., priority 2008, dated 2014).

As for sunitinib L-malate, the “Solubility of sunitinib salts in water at 25° C.” value came out at 2000 µg/mL.
